Test results from US7112607B2, “Allosteric adenosine receptor modulators” (King Pharmaceuticals Research & Development, Inc., priority 1997, dated 2006).

Target: T1, human recombinant A1 adenosine receptors (Homo sapiens, UniProt P30542)
T1 construct: expressed in transfected cells; host or cells: Chinese hamster ovary (CHO) cells, CHO:huA1, G-418 selected
T1 sequence (P30542 1-326): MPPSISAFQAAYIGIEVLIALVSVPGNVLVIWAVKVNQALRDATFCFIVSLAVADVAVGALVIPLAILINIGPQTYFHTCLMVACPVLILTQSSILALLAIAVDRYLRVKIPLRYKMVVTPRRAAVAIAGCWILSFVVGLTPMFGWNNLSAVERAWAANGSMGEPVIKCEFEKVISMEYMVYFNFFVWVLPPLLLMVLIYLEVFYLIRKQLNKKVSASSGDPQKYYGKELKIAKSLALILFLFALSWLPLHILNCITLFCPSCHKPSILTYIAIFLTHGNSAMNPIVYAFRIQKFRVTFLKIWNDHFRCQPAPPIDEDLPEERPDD
Assay: Allosteric enhancement: reduction of cAMP content of CHO:huA1 cells (radioimmunoassay)
Format: cell-based
Conditions: forskolin 1 μM, rolipram 20 μM, CPA 0.01 nM, adenosine deaminase, 6 min at 36° C.; for inhibition at 0.01 µM / inhibition at 0.1 µM / inhibition at 1 µM / inhibition at 10 µM: 0.1 h, read-out: Change in cAMP Content from Control (mean + SEM)
Procedure: Chinese hamster ovary cells expressing human recombinant A1 adenosine receptors (CHO:huA1 cells) at a density of approximately 8000 fmol/mg protein were prepared as previously described (Kollias-Baker et al., (1997), J. Pharmacol. Exp. Ther. 281: 761–768) and aliquots of the cells at low passage numbers were frozen and stored in liquid nitrogen. When compounds were tested, an aliquot of CHO:huA1 cells were rapidly thawed after removal from liquid nitrogen, then grown in Ham's F12 culture medium with 10% fetal bovine serum and 0.5 mg/mL of antibiotic G-418 (Shryock, Ozeck, and Belardinelli (1998), Mol. Pharmacol 53: 886–893). Cells were passaged thrice weekly. Aliquots of cells were placed into 12-well plates with culture medium, serum, and antibiotic for 48 hours, by which time the cells had grown to a confluent monolayer.
Allosteric enhancement was measured as the action of a test compound at different concentrations (0.01, 0.1, 1 and 10 μM) to reduce the cAMP content of CHO:huA1 cells. To initiate an experiment, growth medium was removed from the 12-well plates and cells were washed once with warm Hanks' buffered saline. The wash solution was then removed and replaced with fresh Hanks' solution containing forskolin (1 μM), rolipram (20 μM), N^6-cyclopentyladenosine (CPA, 0.01 nM), adenosine deaminase (2 U/mL), and the test compound. Forskolin was used to stimulate the activity of adenylyl cyclase, rolipram to inhibit cAMP phosphodiesterase, adenosine deaminase to degrade endogenous adenosine, and CPA to cause a small increase of the number of activated adenosine receptors. After 6 min of incubation at 36° C. in the presence of test compound, the incubation solution was removed and hydrochloric acid (final concentration 50 mM) was added to terminate drug action.
The content of cAMP in acidified extracts of cells was determined by radioimmunoassay as previously described (Kollias-Baker et al., (1997), J. Pharmacol. Exp. Ther. 281: 761–768). Because the magnitude of the effects of allosteric enhancers on CHO:huA1 cells changed subtly with passage number and differed slightly among different aliquots of cells, the actions of the test compounds and the action of a reference compound (PD 81,723) were assessed in each experiment. The effect of each test compound on cAMP content is presented in Table 1 as a percentage of the value of cAMP content in the absence of drug (control, 100%). Each value is a mean±standard error of 6 determinations in each of the number of experiments indicated in the “n” column of the table.

inhibition at 0.01 µM (0.01 μM test compound) | inhibition at 0.1 µM (0.1 μM test compound) | inhibition at 1 µM (1 μM test compound) | inhibition at 10 µM (10 μM test compound) | Change in cAMP Content from Control (mean + SEM) (0.01 μM test compound) | Change in cAMP Content from Control (mean + SEM) (0.1 μM test compound) | Change in cAMP Content from Control (mean + SEM) (1 μM test compound) | Change in cAMP Content from Control (mean + SEM) (10 μM test compound) | SMILES
19 ± 3% | 14 ± 4% | 15 ± 3% | 51 ± 3% |  |  |  |  | Nc1sc2c(c1C(=O)c1ccc3ccccc3c1)CCC2 [Example 31, (2-Amino-5,6-dihydro-4H-cyclopenta[b]thiophen-3-yl)-naphthalen-2-yl-methanone]
 |  |  |  | 5 ± 4% | −5 ± 4% | −3 ± 3% | −17 ± 1% | COc1ccc(C(=O)c2c(N)sc3c2CCCC3)c2ccccc12 [Example 27, (2-Amino-4,5,6,7-tetrahydrobenzo[b]thiophen-3-yl)-(4-methoxynaph-thalen-1-yl)-methanone]
5 ± 3% | 13 ± 3% | -3 ± 5% | 4 ± 6% |  |  |  |  | Nc1sc2c(c1C(=O)c1cc3ccccc3o1)CCC2 [Example 15, (2-Amino-5,6-dihydro-4H-cyclopenta[b]thiophen-3-yl)-benzofuran-2-yl-methanone]
-3 ± 3% | -19 ± 5% | 14 ± 5% | 67 ± 3% |  |  |  |  | Nc1sc2c(c1C(=O)c1ccc(Br)c3ccccc13)CCC2 [Example 22, (2-Amino-5,6-dihydro-4H-cyclopenta[b]thiophen-3-yl)-(4-bromonaphthalen-1-yl)-methanone]
10 ± 2% | -2 ± 6% | 3 ± 6% | 10 ± 7% |  |  |  |  | Nc1sc2c(c1C(=O)c1ccco1)CCCC2 [Example 4, (2-Amino-4,5,6,7-tetrahydrobenzo[b]thiophen-3-yl)-furan-2-yl-methanone]
 |  |  |  | −3 ± 4% | 0.8 ± 7% | −1 ± 6% | 2 ± 7% | Nc1sc2c(c1C(=O)c1ccccn1)CCC2 [Example 17]
-6 ± 5% | 7 ± 4% | -16 ± 5% | -7 ± 6% |  |  |  |  | Cc1sc(N)c(C(=O)c2cc3ccccc3o2)c1C [Example 18, (2-Amino-4,5-dimethylthiophen-3-yl)-benzofuran-2-yl-methanone]
13 ± 5% | 3 ± 4% | 4 ± 3% | 5 ± 4% |  |  |  |  | Nc1sc2c(c1C(=O)c1cc3ccccc3o1)CCCC2 [Example 14, (2-Amino-4,5,6,7-tetrahydrobenzo[b]thiophen-3-yl)-benzofuran-2-yl-methanone]
2 ± 4% | 8 ± 5% | 11 ± 5% | -8 ± 3% |  |  |  |  | Nc1sc2c(c1C(=O)c1ccccn1)CCCC2 [Example 19, (2-Amino-4,5,6,7-tetrahydrobenzo[b]thiophen-3-yl)-pyridin-2-yl-methanone]
 |  |  |  | −1 ± 2% | −7 ± 2% | −13 ± 1% | −50 ± 1% | Cc1sc(N)c(C(=O)c2cccc(C(F)(F)F)c2)c1C [PD 81,723, reference compound]
 |  |  |  | −6 ± 3% | −3 ± 4% | −8 ± 4% | −35 ± 3% | COc1ccc(C(=O)c2c(N)sc3c2CCC3)c2ccccc12 [Example 23]
13 ± 4% | 24 ± 3% | 28 ± 2% | 42 ± 3% |  |  |  |  | Nc1sc2c(c1C(=O)c1ccc3ccccc3c1)CCCC2 [Example 30, (2-Amino-4,5,6,7-tetrahydrobenzo[b]thiophen-3-yl)-naphthalen-2-yl-methanone]
11 ± 4% | 12 ± 3% | 18 ± 3% | 60 ± 4% |  |  |  |  | Nc1sc2c(c1C(=O)c1ccc3ccccc3c1)CCN(Cc1ccccc1)C2 [Example 32, (2-Amino-6-benzyl-4,5,6,7-tetrahydrothieno[2,3-c]pyridin-3-yl)-naphthalen-2-yl-methanone]
